Experiment [1] relates to IFNγ-induced Nitric Oxide production. Briefly: Nitric oxide production assay in RAW 264.7 mouse macrophages. It counts as cell-based. The settings on record: RAW264.7, suppression of IFNγ-induced NO production normalized to cell viability (WST-1), RAW 264.7, 24 hours IFNγ. How it is done: A. Nitric Oxide Production Assay and Cell Viability
RAW 264.7 mouse macrophages were plated in 96-well plates at a density of 30,000 cells per well in triplicate in RPMI 1640+0.5% FBS and incubated at 37° C. with 5% CO2 in a humidified atmosphere. The next day, cells were pre-treated with DMSO (vehicle) or test compound (concentration ranges of 0.4-200 nM or 2-1000 nM) for 2 hours and then treated with recombinant mouse IFNγ (R&D Systems) for 24 hours. Nitric oxide concentration in media was determined using the Griess reagent system (Promega). Cell viability was determined using WST-1 reagent (Roche). Values from test compound samples were normalized to those from DMSO/IFNγ-treated samples. IC50 values were determined based on the suppression of IFNγ-induced Nitric Oxide production normalized to cell viability.

Another experiment addresses T1, human RORγ (Homo sapiens, UniProt P51449).
T1 sequence (P51449 269-508 limits assumed): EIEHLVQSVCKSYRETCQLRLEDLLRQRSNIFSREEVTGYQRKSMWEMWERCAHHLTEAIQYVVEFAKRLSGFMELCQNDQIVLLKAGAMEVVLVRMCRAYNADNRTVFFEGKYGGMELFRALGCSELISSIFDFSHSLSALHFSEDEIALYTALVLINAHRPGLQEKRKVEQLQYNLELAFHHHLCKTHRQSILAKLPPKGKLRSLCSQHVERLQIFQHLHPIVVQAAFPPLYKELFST
The experiment in a line: RORγ assay (GAL4-RORγ hybrid luciferase reporter, inverse-agonist activity). Type of experiment: cell-based. The settings on record: GAL4-RORγ hybrid reporter cells, 23 hours. From the text: C. RORγ Assay and Cell Viability
The RORγ assay system was purchased from Indigo Biosciences. This nuclear receptor assay utilizes a human cell line that has been engineered to express a hybrid form of the Human RAR-related Orphan Receptor Gamma (RORγ) at high levels. The N-terminal DNA binding domain (DBD) of the native RORγ receptor was substituted with the yeast GAL4-DBD to generate the GAL4-RORγ hybrid nuclear receptor. The reporter cell line is transfected with a plasmid that encodes the beetle luciferase gene under the control of the GAL4 upstream activating sequence (UAS). GAL4 binds to the UAS and increases transcription of downstream target genes. […] To assess the RORγ inverse-agonist activity of the test compounds, reporter cells were plated in white 96-well plates in triplicate and were treated with DMSO (vehicle) or test compound (concentration ranges of 0.4-200 nM or 2-1000 nM) at 37° C. with 5% CO2 in a humidified atmosphere for 23 hours. After this incubation, luciferin was added to the wells and luciferase activity was determined by measuring the luminescence signal using a BMG Pherastar microplate reader. Viability was determined using the Live Cell Multiplex Assay (Indigo Biosciences). Values from test compound samples were normalized to those from DMSO-treated samples. Data were analyzed using GraphPad Prism version 6.00 for Windows (GraphPad Software, La Jolla Calif. USA). A non-linear regression analysis with log (inhibitor) vs. normalized response using a variable slope was applied to fit the data and determine the IC50 values for inhibition of RORγ and cell viability.
(In general: Reporter assays use an easily measured gene product as a stand-in for the process of interest.)

The next experiment deals with hIL17. Briefly: IL-17 release from differentiated primary human T-cells (IL-17A HTRF assay). It counts as cell-based. To be noted: inhibition of IL-17A levels; primary human CD4+ T cells differentiated into Th17 cells, 46-hour incubation. As to the method:
D. IL-17 Release from Differentiated Primary Human T-Cells and Cell Viability
Primary human cryopreserved CD4+ T Cells (Lonza, donor #0000402103) were plated in Lymphocyte Growth Medium-3 (LGM-3, Lonza) according to the manufacturer's recommendations, and allowed to recover for approximately 3 hours at 37° C. with 5% CO2 in a humidified atmosphere. After the recovery step, cells were collected by centrifugation and re-plated in 96-well plates at a density of ˜140,000 cells per well in LGM-3 medium that contained DMSO (vehicle) or test compound (2-500 nM or 4-1000 nM concentration range). Triplicate wells were plated for each test condition. DMSO (final concentration ≤0.1%) was used as the vehicle. Immediately after plating, CD4+ T cells were activated by adding Dynabeads Human T-Activator CD3/CD28 (Life Technologies; bead-to-cell ratio of 1:2.5) and differentiated into Th17 cells by adding a mixture of the following cytokines: transforming growth factor-β (TGF-β, 5 ng/mL), IL-6 (20 ng/mL), IL-23 (20 ng/mL), and […] (10 ng/mL). Undifferentiated control cells received only cytokine IL-2 (50 ng/mL). All human recombinant cytokines were purchased from R&D Systems. Following a 46-hour incubation at 37° C. with 5% CO2 in a humidified atmosphere, the plates were centrifuged for 3 minutes at 250×g, and half of the supernatant was transferred to a new plate to be used in the IL-17A assay (see below). Cell viability was assessed in the original plate using the CyQuant Direct Assay (Life Technologies). CyQuant values from test compound samples were normalized to those from DMSO-treated samples. The concentration of IL-17A in the supernatant was measured using the Homogeneous Time-Resolved Fluorescence (HTRF) assay (Cisbio Bioassays) according to the manufacturer's protocol. The assay was performed at room temperature in low volume, solid white 384-well plates (Greiner Bio-One). Samples and standards (serially-diluted human recombinant IL-17A (0 to 5,000 pg/mL concentration range; Cisbio Bioassays) were incubated with the anti-human IL-17A antibody conjugate for 16 hours and fluorescence was measured using a Pherastar FS microplate reader (BMG Labtech) in the HTRF mode (excitation at 337 nm and emission at 665 nm and 620 nm). IL-17A concentrations were assessed in duplicate aliquots of supernatant from each well resulting in a total of six readings per test condition. The 665 nm/620 nm signal ratio was calculated and the concentration of IL-17A in each sample was determined by interpolation from the standard curve. IL-17A values from test compound samples were normalized to those from DMSO-treated samples. Data were analyzed using GraphPad Prism version 6.00 for Windows (GraphPad Software, La Jolla Calif. USA). A non-linear regression analysis with log (inhibitor) vs. normalized response using a variable slope was applied to fit the data and determine the IC50 values for inhibition of IL-17A levels and cell viability.
(TR-FRET usually uses a lanthanide donor and a delayed reading to cut background.)

The next experiment has as its system NRF2. The experiment in a line: AREc32 luciferase reporter assay. Type of experiment: cell-based, human. To be noted: EC2×: concentration required to increase GST ARE Luciferase reporter activity by 2-fold; AREc32 cells, 19 hours. The text has this:
B. AREc32 Luciferase Reporter Assay
The AREc32 luciferase reporter assay allows for quantitative assessment of the endogenous activity of the Nrf2 transcription factor in cultured mammalian cells. AREc32 cells are derived from MCF-7 human breast carcinoma cells that were stably transfected with a reporter construct that contains the firefly luciferase gene located downstream of eight copies of the rat GSTA2 antioxidant response element (ARE) sequence (Wang et al., 2006; CXR Biosciences). Active NRF2 binds to the ARE sequences and increases expression of the firefly luciferase gene. To assess the NRF2-activating potential of the test compounds, AREc32 cells were plated in black 96-well plates at a density of 20,000 cells per well in triplicate in DMEM+10% FBS+0.8 mg/mL Geneticin and incubated at 37° C. with 5% CO2 in a humidified atmosphere. The next day, cells were treated with DMSO (vehicle) or test compound (concentration ranges of 0.4-200 nM or 2-1000 nM) for 19 hours. Luciferase activity was determined using the ONE-Glo Luciferase assay (Promega). The luminescence signal was measured on a BMG Pherastar microplate reader. The mean luminescence value from test compound-treated wells was normalized to that from DMSO-treated wells and was represented as fold-induction. Data were analyzed using GraphPad Prism version 6.00 for Windows, GraphPad Software, La Jolla Calif. USA. A non-linear regression curve with log (agonist) vs. response using a variable slope was used to fit the data. Where applicable, a maximum threshold value of 50-fold over DMSO was set. EC2× values were interpolated from the curve. EC2× corresponds to the concentration of test compound required to increase GST ARE Luciferase reporter activity by 2-fold.

Results on 10 molecules are retold here after patent US11584775B2, “C4-modified oleanolic acid derivatives for inhibition of IL-17 and other uses” (REATA PHARMACEUTICALS, INC., priority 2015, dated 2023).

The structures appear in SMILES notation. A value given as a limit tells only on which side of the number the result lay.

Regarding `COC(=O)[C@]12CCC(C)(C)C[C@H]1[C@H]1C(=O)C=C3[C@@]4(C)C=C(C#N)C(=O)[C@@H](C)[C@@H]4CC[C@@]3(C)[C@]1(C)CC2` [Comparison Compound #1, reference compound], the IC50 (usually the concentration that gives 50% inhibition) was 1.2 nM in experiment [1], 127 nM at human RORγ and 25 nM in the experiment on hIL17. Besides, in the experiment on NRF2, the “EC2x: concentration giving 2-fold induction of ARE luciferase reporter” value is given as 11 nM.

As for `CC1(C)CC[C@]2(C(=O)NCC(F)(F)F)CC[C@]3(C)[C@H](C(=O)C=C4[C@@]5(C)C=C(C#N)C(=O)C(C)(C)[C@@H]5CC[C@]43C)[C@@H]2C1` [Comparison Compound #2, reference compound], the IC50 in experiment [1] came out at 4.5 nM; on human RORγ, 104 nM; in the experiment on hIL17 it was 40 nM. The “EC2x: concentration giving 2-fold induction of ARE luciferase reporter” value in the experiment on NRF2 is 53 nM.

Consider `CCNC(=O)[C@]12CCC(C)(C)C[C@H]1[C@H]1C(=O)C=C3[C@@]4(C)C=C(C#N)C(=O)C(C)(C)[C@@H]4CC[C@@]3(C)[C@]1(C)CC2` [Comparison Compound #3, reference compound], for which the results for the 50% inhibitory concentration (IC50) (in experiment [1]; on human RORγ; with hIL17) were 3.4 nM, 204 nM and 81 nM, respectively. In addition, in the experiment with NRF2, the “EC2x: concentration giving 2-fold induction of ARE luciferase reporter” value was 32 nM.

As to `C[C@@H]1C(=O)C(C#N)=C[C@]2(C)C3=CC(=O)[C@@H]4[C@@H]5CC(C)(C)CC[C@]5(NC(=O)C(C)(F)F)CC[C@@]4(C)[C@]3(C)CC[C@@H]12` [Comparison Compound #4, reference compound], the IC50 was determined as 0.6 nM in experiment [1], 177 nM at human RORγ and 38 nM in the experiment with hIL17. The “EC2x: concentration giving 2-fold induction of ARE luciferase reporter” value with NRF2 amounted to 11 nM.

`COC(=O)[C@]12CCC(C)(C)C[C@H]1[C@@]1(O)C(=O)C=C3[C@@]4(C)C=C(C#N)C(=O)C(C)(C)[C@@H]4CC[C@@]3(C)[C@]1(C)CC2` [Comparison Compound #5, reference compound]: the half-maximal inhibitory concentration (IC50) in experiment [1] was 1.6 nM; at human RORγ it was 135 nM; with hIL17, 15 nM. For the same molecule, the “EC2x: concentration giving 2-fold induction of ARE luciferase reporter” value in the experiment with NRF2 was 2 nM.

As to `CC1(C)CC[C@@]23CC[C@@]4(C)[C@]5(C)CC[C@H]6C(C)(C)C(=O)C(C#N)=C[C@]6(C)C5=CC(=O)[C@]4(OC2=O)[C@@H]3C1` [Comparison Compound #6, reference compound], the half-inhibitory concentration (IC50) in experiment [1] was 0.7 nM; at human RORγ it was 159 nM; in the experiment on hIL17 it was 15 nM. Further, the “EC2x: concentration giving 2-fold induction of ARE luciferase reporter” value in the experiment with NRF2 stood at 2 nM.

`COC(=O)N[C@]12CCC(C)(C)C[C@H]1[C@H]1C(=O)C=C3[C@@]4(C)C=C(C#N)C(=O)C(C)(C)[C@@H]4CC[C@@]3(C)[C@]1(C)CC2` [Comparison Compound #7, reference compound]: the half-maximal inhibitory concentration (IC50) in experiment [1] came to 2.4 nM; at human RORγ, 371 nM; in the experiment with hIL17 it was 27 nM. Further, the “EC2x: concentration giving 2-fold induction of ARE luciferase reporter” value with NRF2 stood at 20 nM.

In the case of `Cc1nnc([C@]23CCC(C)(C)C[C@H]2[C@H]2C(=O)C=C4[C@@]5(C)C=C(C#N)C(=O)C(C)(C)[C@@H]5CC[C@@]4(C)[C@]2(C)CC3)o1` [Comparison Compound #8, reference compound], the IC50 in experiment [1] stood at 2 nM; at human RORγ it was 222 nM; with hIL17, 32 nM. The “EC2x: concentration giving 2-fold induction of ARE luciferase reporter” value with NRF2 was determined as 15 nM.

With `CCNC(=O)[C@]12CCC(C)(C)C[C@H]1[C@H]1C(=O)C=C3[C@@]4(C)C=C(C#N)C(=O)[C@@](C)(CO)[C@@H]4CC[C@@]3(C)[C@]1(C)CC2` [Compound T25, (4aS,6aR,6bS,8aR,9R,12aS,14aR,14bS)-11-cyano-N-ethyl-9-(hydroxymethyl)-2,2,6a,6b,9,12a-hexamethyl-10,14-dioxo-1,3,4,5,6,6a,6b,7,8,8a,9,10,12a,14,14a,14b-hexadecahydropicene-4a(2H)-carboxamide], the 50% inhibitory concentration (IC50) in experiment [1] is 16 nM; in the experiment on hIL17 it was 67 nM. The “EC2x: concentration giving 2-fold induction of ARE luciferase reporter” value in the experiment with NRF2 amounted to 131 nM.

For `CN(C)C(=O)[C@]1(C)C(=O)C(C#N)=C[C@]2(C)C3=CC(=O)[C@]45OC(=O)[C@@]6(CCC(C)(C)C[C@H]64)CC[C@@]5(C)[C@]3(C)CC[C@@H]12` [Compound T36, (4S,4aR,6aR,6bS,8aS,12aR,12bS,14bS)-2-cyano-N,N,4,6a,6b, 11,11,14b-octamethyl-3,13,16-trioxo-4,4a,5,6,6a,6b,7,8,10,11,12,12a,13,14b-tetradecahydro-3H,9H-12b,8a-(epoxymethano)picene-4-carboxamide], the IC50 in experiment [1] is more than 1000 nM; in the experiment with hIL17, 126 nM. Moreover, the “EC2x: concentration giving 2-fold induction of ARE luciferase reporter” value in the experiment on NRF2 is more than 1000 nM.
